US20080193400A1, “C-Glycoside Compounds and Use Thereof for Depigmenting the Skin” (priority 2005, published 2008)

Legend:
[1] = system: co-culture of keratinocytes and melanocytes; experiment: Cytotoxicity by incorporation of leucine in a keratinocyte/melanocyte co-culture; assay type: cell-based; conditions: estimated by incorporation of leucine
Experimental: (§1) The melanogenesis-modulating effect of the compound of Example 2 was measured according to the method described in patent FR-A-2 734 825, and also in the article by R. Schmidt, P. Krien and M. Régnier, Anal. Biochem., 235(2), 113-18, (1996). This test is performed on a co-culture of keratinocytes and melanocytes.
(§2) The following were determined for the test compound: • the cytotoxicity, by estimating the incorporation of leucine, • the inhibitory activity on melanin synthesis, by estimating the ratio of the incorporation of thiouracil to the incorporation of leucine, relative to 100% of the control (the control corresponds to the test performed without test compound). The IC50 values (the concentration for which a 50% inhibition of melanogenesis is observed) were also determined.
(§3) The test was also performed with arbutin, which is a known depigmenting compound.

[2] = system: co-culture of keratinocytes and melanocytes; experiment: Inhibition of melanin synthesis (ratio of thiouracil to leucine incorporation) in a keratinocyte/melanocyte co-culture; assay type: cell-based; conditions: for IC50: ratio of thiouracil to leucine incorporation relative to 100% of control, read-out: IC50 (concentration for which a 50% inhibition of melanogenesis is observed)
Experimental: as §1, §2, §3

Structure (SMILES)	Cytotoxicity [1]	IC50 [2] [µM]	Inhibition of melanogenesis (in words) ([2]; compared with arbutin)
OC[C@H]1O[C@@H](Oc2ccc(O)cc2)[C@H](O)[C@@H](O)[C@@H]1O [Arbutin, arbutin, reference compound]	No	≥ 100	
OC[C@H]1O[C@@H](CC(O)c2ccc(O)cc2)[C@H](O)[C@@H](O)[C@@H]1O (some centres unmarked) [Example 2]	No	100	more efficient than arbutin
